Reference: patent publication US9260376B2, “Compounds for use in the treatment of immune related inflammatory disease” (VENANTIUS LIMITED, priority 2011, dated 2016)
Marks after values point to notes of the source that are not given here.

Assays:
5% DSS murine colitis [1] = experiment: Acute murine 5% DSS colitis model, Experiment 1; format: in vivo; details: for DAI at day 7: 10 mg/kg daily for 7 days, vehicle 9.3±0.51; for DAI on the day of autopsy versus vehicle controls: compound 6 3-30 mg/kg at each dose level; for colon pathology (histology scores) relative to vehicle: compound 6 at both 10 and 30 mg/Kg, prednisolone 5 mg/Kg; for colon IL1β level / colon IL6 level / colon TNFα level: day 7; for colon IL1β level: DSS-elevated 0.744±0.076 ng/mg; for colon IL6 level: DSS-elevated 1.057±0.1784 ng/mg; for colon TNFα level: DSS-elevated 1.478±0.378 ng/mg
Source text: The study is widely used as a model for studying the pathogenesis of UC and also for screening new therapeutic interventions for the treatment of UC.
In these studies, an acute colitis model was used, with 5% DSS administered in the drinking water of BALB/c mice. This dosage regime induces severe acute colitis, by days 7-8 mice had overt rectal bleeding and marked weight loss; unless sacrificed beforehand, all mice would have died by days 10-12.
Specific Pathogen-Free BALB/c mice, 6-8 weeks of age, were obtained from a commercial supplier (Harlan UK). Mice were fed irradiated diet and housed in individually ventilated cages (Tecniplast UK) under positive pressure.
DSS (5%) was dissolved in drinking water. Compounds were administered orally at a dose of 10 mg/kg or 30 mg/kg on days 0-7, and mice were culled on day 8 or day 9, depending on the severity of the disease. The mice were checked each day for morbidity and the weight of individual mice was recorded. Induction of colitis was determined upon autopsy, length of colon and histology. Colons were recovered and stored at −20° C. for immunological analysis. All of the compounds and experimental groups are randomly alphabetically labelled. Throughout experiments all data recording was performed in a blind manner. The codes on boxes/groups were not broken until after the data was analysed i.e. boxes labelled A, B, C etc were identified as untreated, DSS-treated, or DSS+compound-treated.
To quantify the extent of colitis, a disease activity index (DAI) was determined based on weight loss, faecal blood and stool consistency. A score was given for each parameter, with the sum of the scores used as the DAI. For each treatment group n=8.
All compounds were prepared for oral gavage (0.1 mL per os (p.o.) per 10 g body weight) as a suspension in 0.5% carboxymethyl cellulose/2% Tween 80, at a dose of 3-30 mg/Kg.

[2] = Partition coefficient (log P), HPLC method; format: physicochemical; details: reverse phase C18 HPLC; for Acid Log10 POW: acidic pH; for Basic Log10 POW: alkaline pH; for Neutral Log10 POW: neutral pH
Source text: The partition coefficient of compound 5 and related analogous compounds was investigated using the HPLC method (reverse phase C18 HPLC column) at neutral, acidic and alkaline pH.

[3] = test system: chronic colitis in IL10-/- mice; experiment: Chronic IL10-/- colitis model; format: in vivo, IL10-/- BALB/c strain mice; details: 300 mg/kg/week oral, MWF
Method: FIG. 15: Is a group showing weight loss in IL10^−−/−− mice treated with vehicle or compound 6. Mice were administered compound 6 (300 mg/kg/week) or vehicle orally on a Monday/Wednesday/Friday (MWF) dosing schedule. Mice were ˜4 weeks of age at start of experiment and were treated for 9 weeks. Mice were weighed weekly and data are presented as Mean±SEM from 9-12 mice per group. Mice were monitored for overt disease, rectal prolapse, and moribund animals were humanely killed;
Mice with a deletion in the IL10^−−/−− gene spontaneously develop chronic colitis, with the age of onset and the severity of the disease being dependent on background mouse strain and the conditions in which the animals are housed. The onset of colitis in IL10^−−/−− mice housed under the conditions used in this study was also strain dependent, with an earlier onset and greater severity, in terms of mortality, in BALB/c strain mice relative to C57BL/6 strain animals. In this experiment, animals received oral treatment on a MWF regime over 9 weeks. Initially, both groups of mice progressively gain weight (FIG. 15). […] By week 9 animals had marked weight loss, with one moribund animal humanely killed on day 60 in each group. As other mice were losing weight and developing clinical symptoms of disease, both groups were culled at week 9 (day 63) and analysed.

[4] = Solubility in water and buffers; format: physicochemical
Method: The sodium salt, potassium salt, calcium salt, α-methylbenzylamine salt and N-Methyl-(D)-Glucamine salt were synthesised. The sodium and calcium salt were unsuccessful. The three salts of compound 5, named potassium salt, α-methylbenzylamine salt and N-Methyl-(D)-Glucamine salt were used for solubility and partition coefficient (log P) studies.
The solubility of the four compounds were determined: […]

5% DSS murine colitis [5] = experiment: DSS murine colitis, Experiment 2 (Method 2); format: in vivo, BDF1 male mice; details: 10 ml/kg oral gavage daily day 0-6, 5-ASA 100 mg/kg; for DAI at day 7 in comparison with vehicle: 31 at 2 mg/ml, 47 at 4 mg/ml
Method: A total of 90 BDF1 (H. pylori-free, murine norovirus-free) male mice (Harlan Laboratories, UK) were used in the study. Animals were 8-10 weeks old on supply and used at 10-12 weeks of age. All mice were held in individually ventilated cages (IVCs) in an SPF (Specific Pathogen Free) barrier unit. The animals were identified by numbered cages and by ear punches.
DSS (MP Biomedicals 0216011090, lot# M2709) was prepared as a 5% (w/v) solution in the drinking water and made fresh daily on days 0 to 6 inclusive. DSS was administered from day 0 to day 7.
Test items were stored at −20° C. until the initiation of the study. Each test item was formulated as a homogenous suspension in 0.5% carboxymethyl cellulose (CMC, Sigma C4888) in sterile water (Sigma W3500, lot# RNBC1419), using an Ultraturax homogeniser, on study day −1. Compound 31 was formulated at 2 mg/ml and 47 was formulated at 4 mg/ml. After formulation the test item and the vehicle stocks anonymised with a letter code. All solutions were stored at 4° C. during the study, with 3.8 ml of each suspension being dispensed daily. Test items were administered by oral gavage, daily at 09.00 hrs, at 10 ml/kg, from study day 0 to study day 6.
5-ASA (5-Aminosalicylic acid, Sigma A3537, lot#051M1878V) was aliquoted into preweighed amounts between 71 and 84 mg. Like test item suspensions, these aliquots were anonymised by a letter code. Individual aliquots were formulated as a 10 mg/ml suspension in 0.5% CMC (Sigma C4888) in sterile water (Sigma W3500, lot# RNBC1419) on each day of dosing. 5-ASA was administered by oral gavage, daily at 09.00 hrs, at 10 ml/kg to give a dose of 100 mg/kg, from study day 0 to study day 6. 2.5 Clinical examinations
Any animal was culled if the weight loss was greater than 20%. Animal well-being was monitored daily. Once daily from day 0 until the end of the study, all mice were weighed and assessed for stool consistency, and the presence of overt blood in the stool or around the anus according to the criteria in 2.1
At necropsy, observation of stool in the large bowel was used to supplement in-life observation. […]

[6] = compound 6 10 and 30 mg/kg groups, Prednisolone 5 mg/kg
[7] = compound 6 30 mg/kg, Prednisolone 5 mg/kg

With `O=C(O)c1ccc(C[C@@]2(C3=Cc4ccccc4C3)Cc3ccccc3[C@H]2O)cc1` (single isomer, unassigned) [Compound 2] the “activity in 5% DSS murine colitis model” value (5% DSS murine colitis [1]; 30 mg/kg p.o. daily for 7 days) was “highly active”.

In the case of `O=C(O)c1ccc(C[C@]2(C3=Cc4ccccc4C3)Cc3ccccc3[C@@H]2O)cc1` (single isomer, unassigned) [Compound 3], the “DAI at day 6 versus vehicle” value (5% DSS murine colitis [1]; 30 mg/kg p.o.) is reported as “no statistical (P>0.05) difference” and the “activity in 5% DSS murine colitis model” value (5% DSS murine colitis [1]; 30 mg/kg p.o. daily for 7 days) is reported as “minimal activity”.

For `O=C(O)c1ccc(C[C@@]2(C3=Cc4ccccc4C3)Cc3ccccc3[C@@H]2O)cc1` [Compound 4, 4-(((1R,2S)-1-hydroxy-2,3-dihydro-1H,1′H-2,2′-biinden-2-yl)methyl)benzoic acid], the “activity in 5% DSS murine colitis model” value (5% DSS murine colitis [1]; 30 mg/kg p.o. daily for 7 days) was “almost devoid of activity” and the “disease activity index (DAI) at day 7” value (5% DSS murine colitis [1]; 30 mg/kg p.o. daily for 7 days, vehicle controls 9.0±0.53) was “without activity”.

For `O=C(O)c1ccc(C[C@]2(C3=Cc4ccccc4C3)Cc3ccccc3[C@H]2O)cc1` [Compound 5, 4-(((1S,2R)-1-hydroxy-2,3-dihydro-1H,1′H-2,2′-biinden-2-yl)methyl)benzoic acid], the “DAI at day 7” value (5% DSS murine colitis [1]) was “no significant (P>0.05) effect”, the “activity in 5% DSS murine colitis model” value (5% DSS murine colitis [1]; 30 mg/kg p.o. daily for 7 days) was “highly active” and the “Acid Log10 POW” value [2] was 3.9. The “Basic Log10 POW” value [2] was 3.7 and the “Neutral Log10 POW” value [2] was 3.7.

For `O=C(O)c1ccc(C[C@@]2(C3=Cc4ccccc4C3)Cc3ccccc3[C@H]2O)cc1` [Compound 6, 6-(Methylamino)hexane-1,2,3,4,5-pentanol 4-(((1S,2S)-1-hydroxy-2,3-dihydro-1H,1′H-2,2′-biinden-2-yl)methyl)benzoate], the “inhibition of colon shortening (colon length) versus vehicle, day 7” value (5% DSS murine colitis [1]; 3 mg/kg) was “did not have a significant effect”, the “therapeutic efficacy in the DSS model” value (5% DSS murine colitis [1]; compound 6 30 mg/Kg versus prednisolone 5 mg/Kg) was “comparable, or better, efficacy relative to prednisolone” and the “colon length compared with Prednisolone, day 7” value (5% DSS murine colitis [1]; compound 6 30 mg/kg, P<0.05) was “significantly better than Prednisolone”. For the same molecule, the “DAI on the day of autopsy versus vehicle controls” value (5% DSS murine colitis [1]; Prednisolone 5 mg/kg) was “significantly (P<0.05-P<0.01) lower DAI than vehicle controls”, the “inhibition of colon shortening (colon length) versus vehicle, day 7” value (5% DSS murine colitis [1]; [6]) was “did have a significant effect” and the “colon pathology (histology scores) relative to vehicle” value (5% DSS murine colitis [1]) was “dose-dependent and highly statistically significant reduction”. For the same molecule, the “colon IL1β level” value (5% DSS murine colitis [1]; [7]) was “significant (P<0.05, 30 mg/kg) and dose-dependant reduction”, the “colon IL6 level” value (5% DSS murine colitis [1]; [7]) was “significant (P<0.05, 30 mg/kg) and dose-dependant reduction” and the “colon TNFα level” value (5% DSS murine colitis [1]; [7]) was “significant (P<0.05, 30 mg/kg) and dose-dependant reduction”. For the same molecule, the “overt reactions in mice” value (5% DSS murine colitis [1]; oral daily for 7 days, 3, 10 and 30 mg/Kg) was “no overt reactions”, the “survival over the 9 weeks, Kaplan-Meier analysis versus vehicle” value [3] was “no statistical difference in survival” and the weight gain ([3]; vehicle stopped gaining weight from week 5) was “maintained weight gain until week 8”. For the same molecule, the “Serum Amyloid A (SAA) levels relative to vehicle” value ([3]; week 9) was “significantly (P<0.05; Student's t-test) reduced”, the “extent of colon pathology (histology score) relative to vehicle” value ([3]; week 9) was “significantly reduced” and the “Acid Log10 POW” value [2] was 2.6. The “Basic Log10 POW” value [2] was 4.3 and the “Neutral Log10 POW” value [2] was 3.5.

For `CNCC(O)C(O)C(O)C(O)CO.O=C(O)c1ccc(C[C@]2(C3=Cc4ccccc4C3)Cc3ccccc3[C@H]2O)cc1` [Compound 7, 6-(Methylamino)hexane-1,2,3,4,5-pentanol 4-(((1S,2R)-1-hydroxy-2,3-dihydro-1H,1′H-2,2′-biinden-2-yl)methyl)benzoate], the “DAI at day 7” value (5% DSS murine colitis [1]) was “no significant (P>0.05) effect”, the “Acid Log10 POW” value [2] was 3.8 and the “Basic Log10 POW” value [2] was 3.5. For the same molecule, the “Neutral Log10 POW” value [2] was 3.5, the “solubility, Milli-RO H20” value ([4]; Milli-RO water, listed as Compound 5 N-Methyl-D-Glucamine salt) was >60,000* μg/mL and the “solubility, pH 4.0 Buffer” value ([4]; pH 4.0 buffer) was 0.14 μg/mL. For the same molecule, the “solubility, pH 7.0 Buffer” value ([4]; pH 7.0 buffer, listed as Compound 5 N-Methyl-D-Glucamine salt) was >60,000* μg/mL and the “solubility, pH 9.0 Buffer” value ([4]; pH 9.0 buffer, listed as Compound 5 N-Methyl-D-Glucamine salt) was >60,000* μg/mL.

With `NCC(=O)O[C@@H]1c2ccccc2C[C@@]1(Cc1ccc(C(=O)O)cc1)C1=Cc2ccccc2C1` [Compound 31, 4-{[(1′S,2′S)-1′-(glycyloxy)-1′,3′-dihydro-1H,2′H-2,2′-biinden-2′-yl]methyl}benzoic acid] the “DAI at day 7 in comparison with vehicle” value (5% DSS murine colitis [5]) was “reduced DAI comparable or equal to 5ASA”.

In the case of `O=C(Nc1ccc(O)c(C(=O)O)c1)c1ccc(C[C@@]2(C3=Cc4ccccc4C3)Cc3ccccc3[C@H]2O)cc1` [Compound 47, 2-hydroxy-5-(4-(((1S,2S)-1-hydroxy-2,3-dihydro-1H,1′H-[2,2′-biinden]-2-yl)methyl)benzamido)benzoic acid], the “DAI at day 7 in comparison with vehicle” value (5% DSS murine colitis [5]) is reported as “reduced DAI comparable or equal to 5ASA” and the “loss of body weight at day 7 in comparison with vehicle control” value (5% DSS murine colitis [5]; 47 formulated at 4 mg/ml) is reported as “does not result in an increase in loss of body weight”.

For `C[C@]12C=CC(=O)C=C1CC[C@@H]1[C@@H]2[C@@H](O)C[C@@]2(C)[C@H]1CC[C@]2(O)C(=O)CO` [Prednisolone, reference compound], the “DAI on the day of autopsy versus vehicle controls” value (5% DSS murine colitis [1]; Prednisolone 5 mg/kg) was “significantly (P<0.01; ANOVA; Dunnett Multiple Comparison Test) reduced DAI scores”, the “inhibition of colon shortening (colon length) versus vehicle, day 7” value (5% DSS murine colitis [1]; [6]) was “did have a significant effect” and the “colon pathology (histology scores) relative to vehicle” value (5% DSS murine colitis [1]) was “no significant improvement”. For the same molecule, the “colon IL1β level” value (5% DSS murine colitis [1]; [7]) was “reduced (p<0.05)”, the “colon IL6 level” value (5% DSS murine colitis [1]; [7]) was “reduced (p<0.05)” and the “colon TNFα level” value (5% DSS murine colitis [1]; [7]) was “reduced (p<0.05)”.
